This is an account of results in patent US9326993B2, “Treatment of pulmonary and pleural fibrosis using HSP27 inhibitors” (ONCOGENEX TECHNOLOGIES INC., priority 2011, dated 2016).

Residues, ends and D or L forms follow the SMILES beside them. *: point of attachment. e = 2'-O-(2-methoxyethyl) (MOE); Cbz = O=C(OCc1ccccc1)*; d = 2'-deoxy (DNA)

Data set [1] concerns human mesothelial Met-5A cells. Nature of the data set: rTGF-β1-induced EMT in Met-5A cells (western blot, RT-PCR). The class given is cell-based. The conditions noted are these: HSP27 siRNA-depleted cells plus proteasome inhibitor. The method, then:
Mesothelial rat established cell line 4/4 RM4 cells (American Type Culture Collection—ATCC—Rockville, Md.) were seeded in Ham's F10 (Lonza), with FBS 15%. Mesothelial human established cell line MET-5A (ATCC) were seeded in Medium 199 (lonza), 1% L-glutamine, 1% penicillin-streptomycin with 10% FBS. Epithelial human cell line A549 cells (ATCC) and were seeded in Ham's F10 (lonza) with 10% FBS.
For EMT induction and analysis, all the different cells were exposed to their respective medium containing 10 ng/ml recombinant (r)TGF-β1 (R&D system, Lille, France) for 6, 12, 24, or 48 hours.
HSP27 siRNA were purchased from applied bios system (Courtaboeuf, France). The sense and antisense sequence were respectively: 5′-GUUCAAAGCAACCACCUGUtt-3 (SEQ ID No: 4)′ and 5′-ACAGGUGGUUGCUUUGAACtt-3′. (SEQ ID No: 5). They were used at a concentration of 50 nM. SiRNA were transfected using INTERFERin (polyplus, Illkirch, France) following the manufacturer recommendations. 5-6 hours after transfection medium were changed and cells were treated or not with 10 ng/ml TGF-β1 for 12, 24 or 48 hours. Seq ID No. 3 was used as a random control oligonucleotide.
(§1) Protein extraction was made using triton X 100 during 30 min at 4° C., vortexing every 10 min. Protein dosage is made with the modified lowry kit (Biorad, Marne-la-Coquette, France). Equal amounts of protein (30-50 μg) were electrophoresed through 8 to 12% SDS polyacrylamide gels. The separate protein bands were transferred onto a PVDF membrane. The non-specific sites were saturated with a solution of PBS-tween 0.1%, nonfat milk 8%. Membranes were incubated with primary Abs over night at 4° C. Secondary Abs IgG linked to HRP (HorseRadish Peroxidase, Jackson ImmunoResearch Laboratories, PA, USA) were used at a concentration of 1/5000. Enhanced ChemiLuminescent substrat (ECL, santa cruz biotechnology, CA, USA) was used to detect the protein of interest. […]
Total RNA was extracted using TRIzol (Invitrogen, Cergy Pontoise, France) from MET-5A and A549 cells treated or not with rTGF-β1 12 or 24 hours and transfected or not by HSP27 siRNA or plasmid encoding HSP27. […] Quantitative RT-PCR was performed on the cDNA using the SYBR green master mix (promega, Charbonnieres, France). […]
On the technique in general: In western blotting, separated proteins are transferred to a membrane and probed.

The test system of another data set is HSP27. As to conditions: cited from earlier work.
The subject of data set [2] is human mesothelial Met-5A cells. As to the kind of experiment: Induction of HSP27 overexpression in Met-5A cells. The class given is cell-based. From the text:
To study the involvement of HSP27 in the EMT process, we induced the overexpression of HSP27 in the human mesothelial Met-5A cells by three different methods: heat shock, staurosporine treatment, and transfection with a plasmid encoding HSP27. […] (Brunet Simioni et al., Oncogene 2009; 28:3332-44) A more specific overexpression was obtained by HSP27 cDNA transfection. […] Conversely, siRNA-meditated depletion of HSP27 inhibits rTGF-β1 induced α-SMA in human […] Met-5A cells and epithelial A549 cells. This decrease in α-SMA content induced by HSP27 depletion seems to be, at least in part, the result of its proteasomal degradation because in the presence of an inhibitor of the proteasome, such as MG132, α-SMA levels were restored

Data set [3] concerns AdTGF-β1 induced pleural and subpleural fibrosis model in rats. Nature of the data set: AdTGF-β1 induced pleural and subpleural fibrosis model. The conditions noted are these: for reduction in the lungs volume compared to AdDL administered animals: RCL2 volume, 10 min at 20 cm H20. In kind it is in vivo, rat. The source says: For experiments on pleural fibrosis we used AdTGF-β1223/225, an adenovirus construct with a mutant TGF-β1 translated into spontaneously bioactive TGF-β1 (AdTGFβ1) and control vectors (AdDL) with no insert in the deleted E1 region. The construction of adenoviral vectors is described in detail elsewhere (DeCologne, 2007, supra; Bett et al. Proc Natl Acad Sci USA 1994; 91:8802-6; Sime et al., J Clin Invest 1997; 100:768-76)
Female Sprague-Dawley rats (Charles River Laboratories) weighing 200-225 g were housed in special pathogen-free conditions. Rodent laboratory food and water were provided ad libitum. The animals were treated in accordance to the guidelines of the Ministère de la Recherche et de laTechnologie (Paris, France). All experiments were approved by the Comitéd'Ethique de l'Universite´ de Bourgogne (Bourgogne, France). All animal procedures were performed with inhalation anesthesia with isoflurane (TEM, Lormont, France). Adenovector administrations were performed by intrapleural injection in 800 μl of NaCl0.9% containing a total of 1.3×10^9 PFU AdTGF-β1, AdDL or AdLacZ. The intrapleural injection protocol was described in details elsewhere (DeCologne, 2007, supra)).
12 mg/kg of control ASO and OGX-427 were daily administrated by intrapleural injection during 5 days after adenoviral administration. Rats were euthanized by abdominal aortic bleeding and lungs were harvested and processed following what was previously described in Decologne et al (DeCologne, 2007, supra)).
Immunohistochemitry: Inflated lungs were transversally cut and paraffin embedded. 5 μm section were performed and stain with primary antibodies (Ab), Mouse monoclonal anti-α-SMA (Sigma, St Quentin Fallavier, France, 1/200), rabbit polyclonal anti-HSP27 (EnzoLife Science, Villeurbanne, France, 1/200) and rabbit polyclonal cleaved caspase 3 (cell signaling, Saint Quentin, France, 1/100). Secondary Abs used were respectively, a goat anti-mouse IgG biotin conjugated and a goat anti-rabbit IgG biotin conjugated. After peroxidase inhibition (PBS plus H2O2, 20 min), lung section were incubated over night at 4° C. with primary ab. Tissue section were after PBS 1× (Phosphate Buffer Saline) wash incubated with the secondary ab (1/500) 45 min. The streptavidin-HRP complex (Jackson ImmunoResearch Laboratories, PA, USA, 1/500) was used 45 min at room temperature. 3-Amino-9-ethylcarbazole/hydrogen peroxide was used as chromagen substrate. Slides were counterstained with hematoxylin.
Total human TGF-β1 was determined from pleural lavage fluid (PLF) using ELISA (R&D Systems, Lille, France), performed according to the recommendations of the manufacturer. The sensitivity of this assay was 7 pg·mL-1.
To assess the role of HSP27 inhibition in the process of fibrogenesis in vivo, we administered OGX427 or its control ASO in the pleural cavity in our AdTGF-β1 induced pleural and subpleural fibrosis model in rats. The concentrations of ASO control and OGX-427 used were those previously described in studies of bladder cancer where the oligonucleotides were administered intra-vesically. (Matsui et al. Mol Cancer Ther 2009; 8:2402-11)
After AdTGF-β1 or AdDL intrapleural administration, rats were daily treated with the ASO control or OGX427 during […] by intra pleural injection. We first confirmed by an ELISA technique that the content on TGF-β1 after AdTGF-β1 intrapleural administration was similar in the pleural lavage fluid (PLF) from all rats, those treated with OGX427 and those treated with a control ASO (FIG. 4A). […] (FIG. 4B)
To determine lung activity, lung volumes were assessed by measuring the volume of RCL2 (fixation solution) that drained into the lungs after 10 min at a constant pressure of 20 cm H20. Compared to AdDL administered animals, AdTGF-β1 administration in ASO control rats induced a reduction in the lungs volume of 55%. […] This effect for the HSP27 inhibitor was only observed in the TGF-β1-exposed animals. […]

The subject of data set [4] is Mesothelial rat primary cells. Nature of the data set: Spontaneous EMT of primary mesothelial cells over culture passages. The class given is cell-based. The method, then:
For primary cell harvesting, 8 ml of HBSS (Lonza, Paris, France) were injected in the pleural cavity through the diaphragm then removed and followed by a 10 ml trypsin 5%, EDTA 0.4% administration for 30 min. This lavage was removed and placed in 30 ml of DMEM (Dulbecco's Modified Eagle Medium, Lonza) with 15% FBS (Fetal Bovine Serum, Lonza). After centrifugation (1300 rpm, 5 minutes), the cell pellet was re-suspended into 5 ml DMEM, FBS 15% and placed at 37° C., 5% CO2.
Mesothelial rat primary cells were grown in Dulbecco's Modified Eagle's Medium (DMEM) 1% L-glutamine, 1% penicillin-streptomycin with 15% Fetal Bovine Serum (FBS. Lonza, Paris, France). Cells were assessed before culture and from passage 1 to 4.
as §1

For `CC(C)C[C@@H](C=O)NC(=O)[C@H](CC(C)C)NC(=O)[C@H](CC(C)C)NC(=O)OCc1ccccc1` [MG132] (Cbz-Leu-Leu-Leu-aldehyde), the “α-SMA levels after HSP27 depletion” value in data set [1] is recorded as “restored”.

Consider `CC(=O)O[C@H]1C(=O)[C@@]2(C)[C@H]([C@H](OC(=O)c3ccccc3)[C@]3(O)C[C@H](OC(=O)[C@H](O)[C@@H](NC(=O)c4ccccc4)c4ccccc4)C(C)=C1C3(C)C)[C@]1(OC(C)=O)CO[C@@H]1C[C@@H]2O` [Paclitaxel], for which the HSP27 expression/levels result with HSP27 is recorded as “inhibitor of hsp27 expression”.

Take `CN[C@@H]1C[C@H]2O[C@@](C)([C@@H]1OC)n1c3ccccc3c3c4c(c5c6ccccc6n2c5c31)C(=O)NC4` [staurosporine]: the HSP27 induction entry in data set [2] was “efficient inducers of HSP27”. In addition, the α-SMA expression/content entry in data set [2] (after HSP27 overexpression) is “increase”.

Consider “ASO control: control oligonucleotide having the sequence CCTTCCCTGAAGGTTCCTCC, also known as ISIS 141923 (listed as DNA, chemistry not given here)”, for which the “reduction in the lungs volume compared to AdDL administered animals” value in data set [3] (AdTGF-β1 rats) was 55%.

Take “OGX-427: 4-12-4 2′-MOE gapmer antisense oligonucleotide with phosphorothiolated linkages targeting HSP27, made by OncoGenex (Seq. ID No. 2) (antisense GGGACGCGGCGCTCGGTCAT; sugars from the 5' end e4 d12 e4, all C 5-methyl, all phosphorothioate, T or U not given here; listed as Homo sapiens)”: in data set [4] (vs ASO control), the “increased expression of HSP27 with cell passages” value is given as “blocked” and the “increased expression of α-SMA with cell passages” value is reported as “blocked”. Moreover, in data set [4] (vs control ASO), the “cell shape (mesothelial phenotype)” value is “kept their mesothelial phenotypic shape”. For the same compound, in data set [3] (AdDL rats (no TGF-β1)), the “lung volumes in AdDL-administered animals, ASO control vs OGX 427” value is reported as “no difference”. In data set [3] (AdTGF-β1 + AdLacZ rats), the “mesothelial cell migration within the subpleural parenchyma” value is on record as “no mesothelial cell migration” and the “morphology of the mesothelial cells” value is reported as “did not change”. For the same compound, in data set [3] (AdTGF-β1 rats), the “pleural fibrosis (histological evaluation)” value is given as “minor pleural fibrosis” and the “reduction in the lungs volume compared to AdDL administered animals” value was 35%. Also, in data set [3] (AdTGF-β1 rats, histology), the “HSP27 expression in lungs” value is recorded as “very significant decrease” and the “α-SMA expression in lungs” value is reported as “very significant decrease”. In addition, in data set [3] (AdTGF-β1 rats, vs control antisense), the “pleural collagen quantified from microscopic images” value was “substantial reduction”. Also, in data set [3] (AdTGF-β1 rats, intra-pleural administration), the “HSP27 expression in PLF (western blot)” value was “strongly blocked”. Moreover, the “TGF-β1 content in pleural lavage fluid (ELISA)” value in data set [3] (after AdTGF-β1 intrapleural, 12 mg/kg daily intrapleural, vs control ASO) is listed as “similar”. For the same compound, the “amount of fibrosis in the pulmonary parenchyma” value in data set [3] (collagen in parenchymal subpleural areas) is “reduces the amount of fibrosis”.

In the case of “interferon-γ: cytokine shown to downregulate expression of HSP27”, the HSP27 expression/levels result in the data set with HSP27 was “downregulate expression of HSP27”.
